The subject of the assay is viral infection. As to the kind of experiment: Subjects with symptoms of viral infection treated with disclosed medicinal compositions (symptom improvement / recovery). It is filed as in vivo, human. The following applies: Patient 6; one paracetamol/acetaminophen on Day 1 of symptoms. The source says: The disclosed compositions are useful in reducing symptoms and/or eliminating viruses in persons suffering from a viral infection or believed to be suffering from a viral infection. Eliminating a virus or an infection from a subject, as used herein, may be referred to as ‘curing’ a subject, for example wherein a subject that has tested positive for the virus (by DNA, RNA, protein, and/or antibody analysis) has no detectable virus (by the same or a different method) after treatment. In these subjects, adults may be administered about 2 ml to about 150 ml per composition per day as a single dose or separated into multiple doses. In some embodiments the subject may be administered the disclosed compounds once, twice, three, or more times a day. In some embodiments, for example, an adult may be administered about 5 ml to about 150 ml of each medicinal composition each day. In many embodiments, (for example where the dose is 15 ml/day) 5 ml is administered 3 times per day as a 5 ml dose. In other embodiments, a 5 ml/day dose may also be divided into 3 or more smaller doses for administration throughout the day—for example about 2 ml three times per day. […]

As for `CC(=O)Nc1ccc(O)cc1` [paracetamol/acetaminophen], the effect on symptoms result is given as “symptoms persisted”.

Source of the values: patent publication US20230405069A1, “METHODS OF TREATING AND […] CORONAVIRUS AND OTHER INDICATIONS, AND COMPOSITIONS FOR USE WITH SAME” (priority 2020, published 2023).
